Assays:
[1] = tested on: recombinant NL4-3 virus (Renilla luciferase in nef); experiment: HIV cell culture assay (antiviral activity, luciferase readout in MT-2 cells); type: cell-based; details: Renilla, NL43
In short: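 MT-2 cells were infected for 4-5 days with 293T-derived recombinant NL4-3 reporter virus in the presence of serially diluted compound. Antiviral activity was quantified as luciferase activity using a live-cell substrate. EC50 was derived from the median effect equation.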

[2] = Compound cytotoxicity, XTT-based colorimetric assay; type: cell-based; details: human; uninfected MT2 cells, day 4, XTT
Procedure: Compound cytotoxicity and the corresponding CC50 values were determined using the same protocol as described in the antiviral assay except that uninfected cells were used. Cytotoxicity was assessed on day 4 in uninfected MT2 cells by using an XTT (2,3-bis[2-Methoxy-4-nitro-5-sulfophenyl]-2H-tetrazolium-5-carboxyanilide inner salt)-based colorimetric assay (Sigma-Aldrich, St Louis, Mo.).

With `Cn1nc(NS(C)(=O)=O)c2c(Cl)ccc(-n3c([C@H](Cc4cc(F)cc(F)c4)NC(=O)Cn4nc(C(F)F)c5c4C(F)(F)[C@H]4C[C@@H]54)nc4cc(-c5ccnn5C5CC5)ccc4c3=O)c21` (atropisomer, axis not shown; (P)) [Example 43, N—((S)-1-((3P)-3-(4-chloro-1-methyl-3-(methylsulfonamido)-1H-indazol-7-yl)-7-(1-cyclopropyl-1H-pyrazol-5-yl)-4-oxo-3,4-dihydroquinazolin-2-yl)-2-(3,5-difluorophenyl)ethyl)-2-((3bS,4aR)-3-(difluoromethyl)-5,5-difluoro-3b,4,4a,5-tetrahydro-1H-cyclopropa[3,4]cyclopenta[1,2-c]pyrazol-1-yl)acetamide] the EC50 [1] was 0.13 nM and the CC50 at 4 days [2] was > 100 nM.

For `Cn1nc(NS(C)(=O)=O)c2c(Cl)ccc(-n3c([C@H](Cc4cc(F)cc(F)c4)NC(=O)Cn4nc(C(F)F)c5c4C(F)(F)[C@@H]4C[C@H]54)nc4cc(-c5ccc6ncsc6c5)ccc4c3=O)c21` (atropisomer, axis not shown; (P)) [Example 44, N—((S)-1-(7-(benzo[d]thiazol-6-yl)-(3P)-3-(4-chloro-1-methyl-3-(methylsulfonamido)-1H-indazol-7-yl)-4-oxo-3,4-dihydroquinazolin-2-yl)-2-(3,5-difluorophenyl)ethyl)-2-((3bS,4aR)-3-(difluoromethyl)-5,5-difluoro-3b,4,4a,5-tetrahydro-1H-cyclopropa[3,4]cyclopenta[1,2-c]pyrazol-1-yl)acetamide], the EC50 [1] was 0.61 nM and the CC50 at 4 days [2] was > 100 nM.

In the case of `Cn1nc(NS(C)(=O)=O)c2c(Cl)ccc(-n3c([C@H](Cc4cc(F)cc(F)c4)NC(=O)Cn4nc(C(F)F)c5c4C(F)(F)[C@@H]4C[C@H]54)nc4cc(-c5ccc6scnc6c5)ccc4c3=O)c21` (atropisomer, axis not shown; (P)) [Example 45, N—((S)-1-(7-(benzo[d]thiazol-5-yl)-(3P)-3-(4-chloro-1-methyl-3-(methylsulfonamido)-1H-indazol-7-yl)-4-oxo-3,4-dihydroquinazolin-2-yl)-2-(3,5-difluorophenyl)ethyl)-2-((3bS,4aR)-3-(difluoromethyl)-5,5-difluoro-3b,4,4a,5-tetrahydro-1H-cyclopropa[3,4]cyclopenta[1,2-c]pyrazol-1-yl)acetamide], the EC50 [1] is reported as 0.44 nM and the CC50 at 4 days [2] is reported as > 100 nM.

With `Cn1nc(NS(C)(=O)=O)c2c(Cl)ccc(-n3c([C@H](Cc4cc(F)cc(F)c4)NC(=O)Cn4nc(C(F)F)c5c4C(F)(F)[C@@H]4C[C@H]54)nc4cc(-c5ccc6ocnc6c5)ccc4c3=O)c21` (atropisomer, axis not shown; (P)) [Example 46, N—((S)-1-(7-(benzo[d]oxazol-5-yl)-(3P)-3-(4-chloro-1-methyl-3-(methylsulfonamido)-1H-indazol-7-yl)-4-oxo-3,4-dihydroquinazolin-2-yl)-2-(3,5-difluorophenyl)ethyl)-2-((3bS,4aR)-3-(difluoromethyl)-5,5-difluoro-3b,4,4a,5-tetrahydro-1H-cyclopropa[3,4]cyclopenta[1,2-c]pyrazol-1-yl)acetamide] the EC50 [1] was 0.34 nM and the CC50 at 4 days [2] was > 100 nM.

For `Cn1nc(NS(C)(=O)=O)c2c(Cl)ccc(-n3c([C@H](Cc4cc(F)cc(F)c4)NC(=O)Cn4nc(C(F)F)c5c4C(F)(F)[C@@H]4C[C@H]54)nc4cc(-c5ccn(CC(F)(F)C(F)F)n5)ccc4c3=O)c21` (atropisomer, axis not shown; (P)) [Example 47, N—((S)-1-((3P)-3-(4-chloro-1-methyl-3-(methylsulfonamido)-1H-indazol-7-yl)-4-oxo-7-(1-(2,2,3,3-tetrafluoropropyl)-1H-pyrazol-3-yl)-3,4-dihydroquinazolin-2-yl)-2-(3,5-difluorophenyl)ethyl)-2-((3bS,4aR)-3-(difluoromethyl)-5,5-difluoro-3b,4,4a,5-tetrahydro-1H-cyclopropa[3,4]cyclopenta[1,2-c]pyrazol-1-yl)acetamide], the EC50 [1] was 0.07 nM and the CC50 at 4 days [2] was > 100 nM.

For `Cn1nc(NS(C)(=O)=O)c2c(Cl)ccc(-n3c([C@H](Cc4cc(F)cc(F)c4)NC(=O)Cn4nc(C(F)F)c5c4C(F)(F)[C@@H]4C[C@H]54)nc4cc(-c5ccn(CC(F)(F)C(F)(F)F)n5)ccc4c3=O)c21` (atropisomer, axis not shown; (P)) [Example 48, N—((S)-1-((3P)-3-(4-chloro-1-methyl-3-(methylsulfonamido)-1H-indazol-7-yl)-4-oxo-7-(1-(2,2,3,3,3-pentafluoropropyl)-1H-pyrazol-3-yl)-3,4-dihydroquinazolin-2-yl)-2-(3,5-difluorophenyl)ethyl)-2-((3bS,4aR)-3-(difluoromethyl)-5,5-difluoro-3b,4,4a,5-tetrahydro-1H-cyclopropa[3,4]cyclopenta[1,2-c]pyrazol-1-yl)acetamide], the EC50 [1] was 0.091 nM and the CC50 at 4 days [2] was > 100 nM.

In the case of `CCC(F)(F)Cn1ccc(-c2ccc3c(=O)n(-c4ccc(Cl)c5c(NS(C)(=O)=O)nn(C)c45)c([C@H](Cc4cc(F)cc(F)c4)NC(=O)Cn4nc(C(F)F)c5c4C(F)(F)[C@@H]4C[C@H]54)nc3c2)n1` (atropisomer, axis not shown; (P)) [Example 49, N—((S)-1-((3P)-3-(4-chloro-1-methyl-3-(methylsulfonamido)-1H-indazol-7-yl)-7-(1-(2,2-difluorobutyl)-1H-pyrazol-3-yl)-4-oxo-3,4-dihydroquinazolin-2-yl)-2-(3,5-difluorophenyl)ethyl)-2-((3bS,4aR)-3-(difluoromethyl)-5,5-difluoro-3b,4,4a,5-tetrahydro-1H-cyclopropa[3,4]cyclopenta[1,2-c]pyrazol-1-yl)acetamide], the EC50 [1] is reported as 0.081 nM and the CC50 at 4 days [2] is reported as > 100 nM.

In the case of `Cn1nc(NS(C)(=O)=O)c2c(Cl)ccc(-n3c([C@H](Cc4cc(F)cc(F)c4)NC(=O)Cn4nc(C(F)F)c5c4C(F)(F)[C@@H]4C[C@H]54)nc4cc(-c5ccn(CCC(F)(F)F)n5)ccc4c3=O)c21` (atropisomer, axis not shown; (P)) [Example 50, N—((S)-1-((3P)-3-(4-chloro-1-methyl-3-(methylsulfonamido)-1H-indazol-7-yl)-4-oxo-7-(1-(3,3,3-trifluoropropyl)-1H-pyrazol-3-yl)-3,4-dihydroquinazolin-2-yl)-2-(3,5-difluorophenyl)ethyl)-2-((3bS,4aR)-3-(difluoromethyl)-5,5-difluoro-3b,4,4a,5-tetrahydro-1H-cyclopropa[3,4]cyclopenta[1,2-c]pyrazol-1-yl)acetamide], the EC50 [1] is reported as 0.066 nM and the CC50 at 4 days [2] is reported as > 100 nM.

In the case of `Cn1nc(NS(C)(=O)=O)c2c(Cl)ccc(-n3c([C@H](Cc4cc(F)cc(F)c4)NC(=O)Cn4nc(C(F)F)c5c4C(F)(F)[C@@H]4C[C@H]54)nc4cc(-c5ccn(CCCF)n5)ccc4c3=O)c21` (atropisomer, axis not shown; (P)) [Example 51, N—((S)-1-((3P)-3-(4-chloro-1-methyl-3-(methylsulfonamido)-1H-indazol-7-yl)-7-(1-(3-fluoropropyl)-1H-pyrazol-3-yl)-4-oxo-3,4-dihydroquinazolin-2-yl)-2-(3,5-difluorophenyl)ethyl)-2-((3bS,4aR)-3-(difluoromethyl)-5,5-difluoro-3b,4,4a,5-tetrahydro-1H-cyclopropa[3,4]cyclopenta[1,2-c]pyrazol-1-yl)acetamide], the EC50 [1] is reported as 0.042 nM and the CC50 at 4 days [2] is reported as > 100 nM.
